The text below walks through data of patent US20230201216A1, “AZELASTINE AS ANTIVIRAL TREATMENT” (priority 2020, published 2023).

The test system of data set [1] is SARS-CoV-2. The format is cell-based. The settings on record: for viral particle/μL, co-administration / viral particle/μL, post-infection administration: Vero E6, 48 h post infection, median; for reduction of viral particle numbers (up to): Vero E6.
Data set [2] relates to SARS-CoV-2. The settings on record: without virus infection; MucilAir.
Another data set deals with SARS-CoV-2 B.1.351. The format is cell-based.
Data set [3] has as its system SARS-CoV-2. In kind it is cell-based. As to conditions: for cytopathic effect (CPE) score: Vero E6, MOI 0.1, 48 hours post infection; for protective effect against SARS-CoV-2 cytopathic effect: Vero E6. On the technique in general: Protection from cytopathic effect is a common read-out in antiviral testing.
A further data set relates to influenza H1N1. In kind it is cell-based. The settings on record: 24 h post-infection, compared to buffer treated cells.
Another data set deals with IL-8. The format is cell-based, human.
A further data set relates to RSV Long strain. The data set is described as follows: RSV infection of HEp-2 cells, spot count and viral genome copy number by RT-PCR. The settings on record: for RSV infection of cells by spot count, compared to vehicle (DMSO) treated controls: all 3 settings, HEp-2. The format is cell-based, Respiratory Syncytial Virus.
Another data set has as its system RANTES. The format is cell-based, human.
Data set [4] concerns SARS-CoV-2. In kind it is cell-based.
In data set [5] the test system is MucilAir human nasal epithelial cells.
The subject of data set [6] is SARS-CoV-2. The settings on record: cells expressing TMPRSS2, including Calu-3; ref. Hoffmann et al.; cited from earlier work.

Structures can show the parent of a compound that is named as a salt. Where two headings read alike, the source gives them in different places. Some results are limits rather than exact numbers.

In the case of `CN1CCCC(n2nc(Cc3ccc(Cl)cc3)c3ccccc3c2=O)CC1` (centres unmarked) [Azelastine, 4-[(4-chlorophenyl)methyl]-2-(1-methylazepan-4-yl)phthalazin-1-one], the “viral particle/μL, co-administration” value with SARS-CoV-2 [1] (3.125 μM) was determined as 98.4 viral particle/μL; in the data set with SARS-CoV-2 [1] (6.25 μM), 15.45 viral particle/μL; in the data set on SARS-CoV-2 [1] (12.5 μM), 12.25 viral particle/μL; in the data set with SARS-CoV-2 [1] (25 μM), 0.2 viral particle/μL. For the same compound, the “viral particle/μL, post-infection administration” value in the data set with SARS-CoV-2 [1] (3.125 μM) was found to be 138 viral particle/μL; with SARS-CoV-2 [1] (6.25 μM), 68.4 viral particle/μL; with SARS-CoV-2 [1] (12.5 μM) it was 52 viral particle/μL; in the data set on SARS-CoV-2 [1] (25 μM), 6.865 viral particle/μL. In addition, the “reduction of viral particle numbers (up to)” value is given as over 99% with SARS-CoV-2 [1] (co-administration (simulating prevention)) and over 97% in the data set with SARS-CoV-2 [1] (post-infection administration (post-exposure or therapy)). In the data set with SARS-CoV-2 [2], the “tissue morphology of treated versus control cells” value was “No difference in tissue morphology”. For the same compound, the “inhibition (low viral numbers)” value in the data set on SARS-CoV-2 B.1.351 is listed as “over 90%”.

With `CN1CCCC(n2nc(Cc3ccc(Cl)cc3)c3ccccc3c2=O)CC1` (centres unmarked) [Azelastine-HCl], the “cytopathic effect (CPE) score” value in the data set with SARS-CoV-2 [3] (3.125 μM) and in the data set with SARS-CoV-2 [3] (6.25 μM) was 2 in each case. Further, the entries for the “decrease in the viral copy” value in the data set on influenza H1N1 (0.01% azelastine-HCl) and in the data set on influenza H1N1 (0.02% azelastine-HCl) were about 0.9 log and about 1.9 log, respectively. Besides, the results for the “reduction of viral genome copy” value in the data set on influenza H1N1 (0.01% azelastine-HCl) and with influenza H1N1 (0.02% azelastine-HCl) were 87.4% and 98.74%, respectively. Besides, the “IL-8 levels compared to buffer control” value with IL-8 was “significantly reduced”. In addition, the “RSV infection of cells by spot count, compared to vehicle (DMSO) treated controls” value with RSV Long strain (3.2 μM) and in the data set on RSV Long strain (6.4 μM) was about 50% throughout. Besides, the “Viral genome copy relative to DMSO” value in the data set on RSV Long strain (6.4 μM, co-administration, experiment #1) is reported as 46.65%; with RSV Long strain (6.4 μM, co-administration, experiment #2), 53.22%; in the data set with RSV Long strain (6.4 μM, preventive, experiment #1) it was 65.52%; in the data set on RSV Long strain (6.4 μM, preventive, experiment #2), 54.71%; in the data set on RSV Long strain (6.4 μM, therapeutic, experiment #1) it was 47.96%; in the data set on RSV Long strain (6.4 μM, therapeutic, experiment #2), 51.05%. Besides, in the data set on RANTES, the “RANTES levels compared to buffer control” value is listed as “significantly reduced”. In addition, the “reduction of viral particle numbers” value in the data set on SARS-CoV-2 [4] is reported as “over 90%”. In the data set on SARS-CoV-2 [4] (50 μM, Calu-3, MOI 0.01, 48 h), the “reduction of viral particle numbers (up to)” value is over 99%. The cytotoxicity result in data set [5] (0.02% concentration, infected cells) is on record as “no cytotoxicity”; in data set [5] (0.02% concentration, non-infected cells), 6.5%; in data set [5] (lower (0.01%) concentration), “no cytotoxicity”.

Take `CCN(CCO)CCCC(C)Nc1ccnc2cc(Cl)ccc12` (centres unmarked) [Hydroxychloroquine sulfate]: the “potency on cells expressing the surface protease TMPRSS2” value with SARS-CoV-2 [6] is on record as “significantly loses its potency”.

Regarding Maraviroc, the “cytopathic effect (CPE) score” value in the data set on SARS-CoV-2 [3] (3.125 μM) is listed as 4; in the data set on SARS-CoV-2 [3] (6.25 μM) it was 4; with SARS-CoV-2 [3] (12.5 μM) it was 3; with SARS-CoV-2 [3] (25 μM) it was 3; in the data set on SARS-CoV-2 [3] (50 μM), 3. In addition, the “protective effect against SARS-CoV-2 cytopathic effect” value is recorded as “only marginal protective effect” in the data set on SARS-CoV-2 [3] (higher concentrations (12.5 to 50 μM)) and “not effective at all” with SARS-CoV-2 [3] (lower concentrations).
